Values quoted from earlier work in patent US20110256072A1, “FOOD AND COMPOSITION EACH COMPRISING PHOSPHORYLATED SACCHARIDE, POLYPHENOL AND FLUORIDE” (EZAKI GLICO CO., LTD., priority 2008, published 2011).
Several values for one entry are separate records, joined by “and”; a condition that tells them apart may be missing. Equal values may be shown once. Read-outs that look alike come from different tables or passages of the source.

Test system: dental caries

[F-].[Na+] [2% Sodium fluoride solution, Sodium fluoride]
Inhibition rate (in vivo): 20-40%

[F-].[Na+] [NaF: 0.05% every day method, NaF]
Inhibition rate (Fluoride mouth washing method, 226 ppm, Permanent tooth): 20-50%

[F][Sn][F] [SnF2: 8% Solution, SnF2]
Inhibition rate (Local application to dental surface, 19,400 ppm, Permanent tooth): 20-50%

[F-].[Na+] [Sodium fluoride]
Inhibition rate (in vivo): 25-50% and 20-40% and ~30%
